# Data taken from patent US7307096B2, “Combined agents for treatment of glaucoma” (Sankyo Company, Limited, priority 1999, dated 2007).
# Counter-ions that a name gives are not always drawn.
# Experiments:
# glaucoma = conditions: clinical trial; Eur. J. Ophthalmol. 1997, 7(1): 35-9; cited from earlier work
# [1] = tested on: intraocular pressure of New Zealand White Rabbits; experiment: Intraocular pressure lowering test (3), change ratio of intraocular pressure (Example 3); assay type: in vivo; conditions: 50 μl each, four hours after second administration
# Experimental: Using a tonometer (“Alcon Applanation Pneumatonography; manufactured by Alcon), the intraocular pressure of each of New Zealand White Rabbits having body weights of 2 to 3 kg was measured (without anesthesia), followed by administration of 50 μl of a test compound in the form of eye drops. The intraocular pressure was then measured for 4 hours at intervals of one hour (single administration test).
# After the measurement of the intraocular pressure as in Example 2, 50 μl of a solution of test compound 1 was instilled into the eyes, followed by administration of the same amount of the solution of test compound 2 after 5 minutes. Four hours after the second administration, the intraocular pressure was measured and the change ratio of the intraocular pressure was determined by the below-described equation: The change ratio of intraocular pressure (%)=[(intraocular pressure after administration of eye drops−intraocular pressure before administration of eye drops)/intraocular pressure before administration of eye drops]×100.
# In this Example, the same test compounds as Example 1 were employed. The results are shown below in Tables 1 and 2.
# [2] = tested on: ocular hypertension models of New Zealand White Rabbits; experiment: Intraocular pressure lowering test (4), ocular hypertension model (Example 4); assay type: in vivo; conditions: relative to control group
# Experimental: Using New Zealand White Rabbits having body weights of 2 to 3 kg, ocular hypertension models were prepared in accordance with the method of Kurihara, et al. (Jpn. J. Ocular Pharmacology, 4, 62-64(1990)) and the intraocular pressure lowering action of the test compounds was investigated.
# Described specifically, the rabbits were maintained under general anesthesia and their intraocular pressure was measured using a tonometer (“Alcon Applanation Pneumatonography”; manufactured by Alcon). After instillation of local anesthetics into the eyes of the rabbits, 0.1 ml of a 5% sodium chloride solution were injected into their vitreous bodies through a 30 gauge needle. An increase in the intraocular pressure was confirmed 30 minutes after injection, followed by administration of 50 μl of an eye drop solution containing the test compound. Their intraocular pressure was then measured for 2 hours at intervals of 30 minutes (single administration test).
# An ocular hypertension model was made as in Example 1. After confirmation of an increase in the intraocular pressure, 50 μl of a test compound 1 was instilled to the eyes, followed by application of the same amount of a test compound 2 into the eyes after 5 minutes. After this second administration, the intraocular pressure was measured for 2 hours at intervals of 1 hour. Intraocular pressure lowering was determined by the below-described equation. Decrease in intraocular pressure (mmHg)=(intraocular pressure after instillation of a compound group−intraocular pressure before instillation of the compound group)−(intraocular pressure after instillation of a control group−intraocular pressure before instillation of the control group)
# The term “control group” in the above-described formula means a group to which physiological saline was administered to the eyes instead of each of the test compound 1 and test compound 2. Groups other than this control group are a compound group.
# Also in this Example, the same test compounds as described in Example 1 were employed.
compound,measurement,setting,value
CCCCC(=O)N(Cc1ccc(-c2ccccc2-c2nnn[nH]2)cc1)[C@H](C(=O)O)C(C)C [CGP-48933],effect for glaucoma,glaucoma,insufficient
CCCc1nc(C(C)(C)O)c(C(=O)O)n1Cc1ccc(-c2ccccc2-c2nnn[nH]2)cc1 [Compound A],Change ratio (%) of intraocular pressure,"[1]; Table 1, Compound A (4%) then physiological saline",11.4 ± 5.5%
same,Change ratio (%) of intraocular pressure,"[1]; Table 2, Compound A (4%) then physiological saline",11.5 ± 4.1%
same,Decrease in intraocular pressure (mmHg),"[2]; Compound A (1%) then physiological saline, time after instillation 0 min",0.0 ± 2.1 mmHg
same,Decrease in intraocular pressure (mmHg),"[2]; Compound A (1%) then physiological saline, time after instillation 60 min",−1.7 ± 2.2 mmHg
same,Decrease in intraocular pressure (mmHg),"[2]; Compound A (1%) then physiological saline, time after instillation 120 min",−3.4 ± 1.7 mmHg
"CC(C)(C)NC[C@H](O)COc1nsnc1N1CCOCC1 [Compound B, timolol maleate]",Decrease in intraocular pressure (mmHg),"[2]; physiological saline then Compound B (0.25%), time after instillation 0 min",0.0 ± 1.5 mmHg
same,Decrease in intraocular pressure (mmHg),"[2]; physiological saline then Compound B (0.25%), time after instillation 60 min",−2.0 ± 3.5 mmHg
same,Decrease in intraocular pressure (mmHg),"[2]; physiological saline then Compound B (0.25%), time after instillation 120 min",−1.9 ± 3.2 mmHg
"CCCCCCCC(=O)CC[C@@H]1[C@@H](C/C=C\CCCC(=O)OC(C)C)[C@@H](O)C[C@H]1O [Compound C, isopropyl unoprostone]",Change ratio (%) of intraocular pressure,"[1]; Table 1, physiological saline then Compound C (0.12%)",−2.4 ± 9.1%
"CC(C)OC(=O)CCC/C=C\C[C@@H]1[C@@H](CC[C@@H](O)CCc2ccccc2)[C@H](O)C[C@@H]1O [Compound D, latanoprost]",Change ratio (%) of intraocular pressure,"[1]; Table 2, physiological saline then Compound D (0.005%)",17.2 ± 8.8%
